Source: patent publication US12202844B2, “MAP4K1 inhibitors” (Blueprint Medicines Corporation, priority 2021, dated 2025)
Read-outs that look alike come from different tables or passages of the source.

Assays:
MAP4K1 (HPK1) = molecular target: T1, MAP4K1 (HPK1) (Homo sapiens, UniProt Q92918); assay: Inhibition of MAP4K1 biochemical enzymatic activity (EZReader 2 electrophoretic mobility shift); conditions: HPK1 (Invitrogen), S6K2tide 1.5 μM, 120 min; ATP 26 μM or 1000 μM (not given)
T1 construct: purchased Invitrogen
T1 sequence (Q92918 whole entry): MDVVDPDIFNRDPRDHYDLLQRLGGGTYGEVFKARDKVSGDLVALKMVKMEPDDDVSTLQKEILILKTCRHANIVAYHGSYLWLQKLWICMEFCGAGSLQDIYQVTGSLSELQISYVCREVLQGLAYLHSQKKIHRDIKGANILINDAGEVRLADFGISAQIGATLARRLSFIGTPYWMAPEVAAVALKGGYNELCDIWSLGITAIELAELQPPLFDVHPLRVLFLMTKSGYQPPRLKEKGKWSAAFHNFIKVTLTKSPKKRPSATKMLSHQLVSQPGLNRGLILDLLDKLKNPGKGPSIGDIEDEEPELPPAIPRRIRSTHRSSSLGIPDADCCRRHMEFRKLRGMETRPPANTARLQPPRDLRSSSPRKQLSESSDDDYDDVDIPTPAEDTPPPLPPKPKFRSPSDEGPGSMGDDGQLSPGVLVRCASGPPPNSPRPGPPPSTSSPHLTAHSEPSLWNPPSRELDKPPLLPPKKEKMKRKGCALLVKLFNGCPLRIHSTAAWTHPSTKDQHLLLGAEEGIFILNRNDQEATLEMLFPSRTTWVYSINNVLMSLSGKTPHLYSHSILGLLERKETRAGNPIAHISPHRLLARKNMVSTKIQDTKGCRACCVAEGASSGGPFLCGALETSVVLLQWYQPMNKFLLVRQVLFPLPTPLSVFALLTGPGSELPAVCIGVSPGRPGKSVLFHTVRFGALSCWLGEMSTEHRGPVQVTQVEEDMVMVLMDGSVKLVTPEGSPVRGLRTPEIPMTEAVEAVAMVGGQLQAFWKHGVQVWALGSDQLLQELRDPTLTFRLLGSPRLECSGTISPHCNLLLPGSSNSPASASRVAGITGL
Outline: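 Untreated enzyme (0.1-15 nM) was incubated with 1.5 μM fluorescent peptide and 20-1000 μM ATP (apparent Km or 1 mM) in HEPES pH 7.5, MgCl2, DTT, Brij 35 at 25° C. for 60-180 min, with 1% DMSO and a 10-point 4-fold compound series. After an EDTA stop, product/substrate peptide peak ratio was read by mobility shift.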

[1] = test system: Primary T Cell (expanded CD3+ T cells); assay: T cell enhancement of cytokines: IL2 measurement (HTRF) in stimulated expanded CD3+ T cells; assay type: cell-based, human; conditions: plate-bound anti-CD3 and soluble anti-CD28, 24 h, IL2 by HTRF, read-out: IL-2 Primary T Cell EC50
Protocol: T cells are isolated from whole blood of healthy donors by immunomagnetic negative selection following manufacture's protocol (StemCell Technologies, human T cell isolation kit). Purity of isolated cells is assessed by flow cytometry and yields 95-98% CD3^+ T cells. For expansion of T cells, 1×10^6 cells/well are plated in serum free cell expansion media (ThermoFisher) containing 30 U of recombinant human IL2 (R&D) and stimulated with 25 ul of CD3/CD28 beads (Invitrogen) in 24 well plates for 3-4 days. T cells are then expanded in 175 cm flasks and maintained at a cell density of 1 to 2.5×10^6 cells/ml days by addition of ⅔ of fresh media every 2-3 days. After 10-14 days, cells are frozen in BamBanker freezing media (Thermo) and stored in liquid nitrogen.
For IL2 measurement, expanded CD3^+ T cells are dispensed at 100K cells/well (cultured in X-VIVO 10 Serum-free media) and are stimulated with plate-bound anti-CD3 and soluble anti-CD28 in the presence of vehicle or compound of the disclosure at various concentrations for 24 h. As outlined in the manufacturer's protocol (Cisbio), 16 μL of conditioned media is transferred to a white 384-well low volume plate. Following a 24 h incubation with the anti-IL2 antibodies, the homogenous time resolved fluorescence (HTRF) is measured.

IC50 (MAP4K1 (HPK1)) [nM] | EC50 ([1]; Homo sapiens, T-cell, 24 h) [nM] | EC50 [1] [nM] | SMILES
0.77 | 40 | – | C[C@H](CCS(C)(=O)=O)Oc1ncc(C(C)(C)N)c2cc(Nc3ccc4c(n3)C3(CC3)C(C)(C)OC4=O)ncc12 [Compound 67]
0.22 | 36 | – | C[C@H](C[C@@H](C)S(C)(=O)=O)Oc1ncc([C@H](N)C2CC2)c2cc(Nc3ccc4c(n3)[C@@H](C)C(C)(C)OC4=O)ncc12 (single isomer, unassigned) [Compound 110]
0.15 | 25 | – | C[C@H](C[C@@H](C)S(C)(=O)=O)Oc1ncc(C(C)(C)N)c2cc(Nc3ccc4c(n3)[C@@H](C)[C@H](C)OC4=O)ncc12 [Compound 51]
0.14 | 250 | – | C[C@@H]1c2nc(Nc3cc4c(C(C)(C)N)cnc(N[C@H]5C[C@@H](S(C)(=O)=O)C5)c4cn3)ccc2C(=O)OC1(C)C [Compound 28]
0.12 | 15 | – | C[C@@H]1OC(=O)c2ccc(Nc3cc4c(C(C)(C)N)cnc(O[C@H]5C[C@@H](S(C)(=O)=O)C5)c4cn3)nc2[C@H]1C [Compound 13]
0.3 | 32 | – | COC[C@@](C)(N)c1cnc(O[C@H]2C[C@@H](S(C)(=O)=O)C2)c2cnc(Nc3ccc4c(n3)C3(CC3)C(C)(C)OC4=O)cc12 [Compound 162]
0.59 | – | 55 | CC[C@@](C)(N)c1cnc(O[C@H](C)C[C@@H](C)S(C)(=O)=O)c2cnc(Nc3ccc4c(n3)[C@H](C)COC4=O)cc12 (single isomer, unassigned) [Compound 48]
0.08 | 15 | – | C[C@@H]1c2nc(Nc3cc4c(C(C)(C)N)ccc(O[C@H]5C[C@@H](S(C)(=O)=O)C5)c4cn3)ccc2C(=O)OC1(C)C [Compound 27]
0.12 | 10 | – | CC[C@@](C)(N)c1cnc(O[C@H](C)C[C@@H](C)S(=O)(=O)CC)c2cnc(Nc3ccc4c(n3)[C@@H](C)[C@H](C)OC4=O)cc12 [Compound 127, (7S,8R)-2-((5-((R)-2-Aminobutan-2-yl)-8-(((2R,4R)-4-(ethylsulfonyl)pentan-2-yl)oxy)-2,7-naphthyridin-3-yl)amino)-7,8-dimethyl-7,8-dihydro-5H-pyrano[4,3-b]pyridin-5-one]
0.28 | 10 | – | CC[C@@](C)(N)c1cnc(O[C@H](C)C[C@@H](C)S(C)(=O)=O)c2cnc(Nc3ccc4c(n3)C3(CC3)C(C)(C)OC4=O)cc12 [Compound 136, 2′-((5-((R)-2-Aminobutan-2-yl)-8-(((2R,4R)-4-(methylsulfonyl)pentan-2-yl)oxy)-2,7-naphthyridin-3-yl)amino)-7′,7′-dimethyl-5′H,7′H-spiro[cyclopropane-1,8′-pyrano[4,3-b]pyridin]-5′-one]
0.07 | 28 | – | C[C@@H]1c2nc(Nc3cc4c(C(C)(C)N)cnc(O[C@H]5C[C@H](CS(C)(=O)=O)C5)c4cn3)ccc2C(=O)OC1(C)C (single isomer, unassigned) [Compound 75]
0.14 | 7 | – | CC[C@@](C)(N)c1cnc(O[C@H]2C[C@@H](S(C)(=O)=O)C2)c2cnc(Nc3ccc4c(n3)[C@@H](C)C(C)(C)OC4=O)cc12 [Compound 78]
0.21 | 105 | – | CCS(=O)(=O)[C@H]1C[C@@H](Nc2ncc(C(C)(C)N)c3cc(Nc4ccc5c(n4)[C@@H](C)C(C)(C)OC5=O)ncc23)C1 [Compound 64]
0.16 | 7 | – | CC[C@@](C)(N)c1cnc(O[C@H](C)C[C@@H](C)S(C)(=O)=O)c2cnc(Nc3ccc4c(n3)[C@@H](C)C(C)(C)OC4=O)cc12 [Compound 129]
0.57 | 26 | – | CC[C@@](C)(N)c1cnc(O[C@@H](C)CCS(C)(=O)=O)c2cnc(Nc3ccc4c(n3)[C@@H](C)[C@@H](C)OC4=O)cc12 (single isomer, unassigned) [Compound 148]
0.1 | 27 | – | CCS(=O)(=O)[C@H]1C[C@@H](Oc2ncc([C@](C)(N)COC)c3cc(Nc4ccc5c(n4)[C@@H](C)[C@H](C)OC5=O)ncc23)C1 [Compound 122]
0.15 | 15 | – | CC[C@@](C)(N)c1cnc(O[C@H](C)C[C@@H](C)S(C)(=O)=O)c2cnc(Nc3ccc4c(n3)C(C)(C)[C@H](C)OC4=O)cc12 (single isomer, unassigned) [Compound 186]
0.33 | 33 | – | COC[C@@](C)(N)c1cnc(O[C@H]2C[C@@H](CS(C)(=O)=O)C2)c2cnc(Nc3ccc4c(n3)[C@@H](C)C(C)(C)OC4=O)cc12 [Compound 140]
0.33 | 43 | – | C[C@@H]1OC(=O)c2ccc(Nc3cc4c(C(C)(C)N)cnc(O[C@@H](C)CCS(C)(=O)=O)c4cn3)nc2[C@H]1C (single isomer, unassigned) [Compound 18]
0.24 | 21 | – | CC[C@@](C)(N)c1cnc(O[C@H](C)CCS(C)(=O)=O)c2cnc(Nc3ccc4c(n3)C3(CC3)[C@@H](C)OC4=O)cc12 (single isomer, unassigned) [Compound 66]
0.18 | 7 | – | C[C@@H]1COC(=O)c2ccc(Nc3cc4c(C(C)(C)N)cnc(O[C@H]5C[C@@H](S(C)(=O)=O)C5)c4cn3)nc21 (single isomer, unassigned) [Compound 6]
0.38 | 53 | – | CC[C@@](C)(N)c1cnc(O[C@H](C)C[C@@H](C)S(C)(=O)=O)c2cnc(Nc3ccc4c(n3)[C@H](C)COC4=O)cc12 (single isomer, unassigned) [Compound 47]
0.3 | 38 | – | CCS(=O)(=O)[C@H](C)C[C@@H](C)Oc1ncc([C@H](N)C2CC2)c2cc(Nc3ccc4c(n3)[C@@H](C)C(C)(C)OC4=O)ncc12 (single isomer, unassigned) [Compound 138]
0.37 | 41 | – | CC[C@@](C)(N)c1cnc(O[C@H](C)CCS(C)(=O)=O)c2cnc(Nc3ccc4c(n3)C3(CC3)C(C)(C)OC4=O)cc12 [Compound 105]
0.14 | 26 | – | CC[C@@](C)(N)c1cnc(O[C@H](C)CCS(C)(=O)=O)c2cnc(Nc3ccc4c(n3)[C@@H](C)C(C)(C)OC4=O)cc12 [Compound 94]
0.19 | – | 9 | CC[C@@](C)(N)c1cnc(O[C@H](C)CCS(=O)(=O)CC)c2cnc(Nc3ccc4c(n3)[C@@H](C)[C@H](C)OC4=O)cc12 (single isomer, unassigned) [Compound 93]
0.08 | 52 | – | CC[C@@](C)(N)c1cnc(O[C@@H](C)CCS(C)(=O)=O)c2cnc(Nc3ccc4c(n3)[C@@H](C)C(C)(C)OC4=O)cc12 [Compound 95]
0.22 | 24 | – | C[C@H](C[C@@H](C)S(C)(=O)=O)Oc1ncc(C(C)(C)N)c2cc(Nc3ccc4c(n3)[C@@H](C)C(C)(C)OC4=O)ncc12 [Compound 91]
0.33 | 51 | – | CC[C@@H](N)c1cnc(O[C@H]2C[C@@H](S(=O)(=O)CC)C2)c2cnc(Nc3ccc4c(n3)[C@@H](C)C(C)(C)OC4=O)cc12 (single isomer, unassigned) [Compound 74]

SMILES | IC50 (MAP4K1 (HPK1)) [nM] | EC50 ([1]; Homo sapiens, T-cell, 24 h) [nM] | EC50 [1] [nM]
CCS(=O)(=O)[C@H]1C[C@@H](Oc2ncc(C(C)(C)N)c3cc(Nc4ccc5c(n4)[C@@H](C)[C@H](C)OC5=O)ncc23)C1 [Compound 39, (7S,8R)-2-((5-(2-Aminopropan-2-yl)-8-((cis)-3-(ethylsulfonyl)cyclobutoxy)-2,7-naphthyridin-3-yl)amino)-7,8-dimethyl-7,8-dihydro-5H-pyrano[4,3-b]pyridin-5-one] | 0.13 | 11 | –
